Test system: polyA (polyadenine) (DNA, polymer) A
Experiment: differential pulse voltammetry, dAdo oxidation signal decrease
Details: 0.1 M acetate buffer pH 4.7; 10 µg/mL CIN, 20 min; dAdo signal falls to S% 50

binding: yes
Structure (SMILES): C[C@@H](NCCCc1cccc(C(F)(F)F)c1)c1cccc2ccccc12

— publication PMC9138790 (2022)
